{"source": "patent US6362215B1", "about": "(priority 1998, dated 2002)", "key": {"laying hens [1]": {"system": "laying hens", "assay": "Other tests on shell quality of older hens supplied with calcium L-pidolate", "type": "in vivo", "details": "between the 60th week and the 72nd week", "source_text": "The decrease in quality of the shell increases between the 55th and 65th week. The hens are generally sacrificed at 68 to 70 weeks. […] As a result, the duration of exploitation of the hen can thus be prolonged so as to improve the profit of raising by reducing the hen/egg cost."}, "laying hens [2]": {"system": "laying hens", "assay": "Henhouse test on laying hens, calcium L-pidolate in feedstuff; eggs examined by candling", "excerpt": "The downgraded percentage corresponds to the percentage of eggs with cracked shells, which shell having been carefully examined by candling so as to detect any rupture of the shell (cracks, holes, etc.). The percentage of uncracked egg shells was computed from eggs on which no shell rupture was observed by candling."}}, "data": [{"substance": "calcium L-pidolate", "values": [{"measurement": "decrease in quality of the shell", "setting": "laying hens [1]", "result": "can be stabilized"}, {"measurement": "persistence of improvements in egg color (pure white eggs or chalky appearance) after stopping treatment", "setting": "laying hens [2]; after stopping treatment", "result": "persisted eight to ten days after stopping treatment"}, {"measurement": "percentage of downgraded eggs (eggs with cracked shells)", "setting": "laying hens [2]; day after the day of administration in feedstuff, 19,300 hens, candling", "result": "decrease of the percentage of downgraded eggs"}, {"measurement": "effect on quality, in particular mechanical strength of the egg shells, after end of treatment", "setting": "laying hens [2]; day after the end of treatment", "result": "decreased and disappeared completely"}, {"measurement": "percentage of downgraded eggs over the test period", "setting": "laying hens [2]; tests of FIG. 1, winter, October-November", "result": "maintaining the percentage of downgraded eggs at a substantially constant value"}]}]}
